Measurements taken from US20250221410A1, “SUBSTITUTED 2-C-AZINES AND SALTS THEREOF, AND USE THEREOF AS HERBICIDAL ACTIVE SUBSTANCES” (BAYER AKTIENGESELLSCHAFT, priority 2022, published 2025).

Legend:
Format in all cases: in vivo
[1] = tested on: ABUTH: Abutilon theophrasti; assay: Post-emergence herbicidal efficacy at 1280 g/ha, ABUTH; conditions: rated visually after about 3 weeks vs untreated controls, 100% = plants have died, 0% = like control plants
Protocol: (§1) Seeds of mono- and dicotyledonous weed plants were placed in plastic pots in sandy loam soil (doubly sown with in each case one species of mono- or dicotyledonous weed plants per pot), covered with soil and cultivated in a greenhouse under controlled growth conditions. 2 to 3 weeks after sowing, the test plants were treated at the one-leaf stage. The compounds of the invention, formulated in the form of wettable powders (WP) or as emulsion concentrates (EC), were applied to the green parts of the plants as aqueous suspension or emulsion with addition of 0.5% additive at a water application rate equivalent to 600 litres per hectare. After the test plants had been kept in the greenhouse under optimum growth conditions for about 3 weeks, the activity of the preparations was rated visually in comparison to untreated controls. For example, 100% activity=the plants have died, 0% activity=like control plants. Tables A1 to A12 below show the effects of selected compounds of the general formula (I) according to Table 1 on various harmful plants and at an application rate corresponding to 1280 g/ha, which were obtained by the trial procedure specified above.

[2] = tested on: AMARE: Amaranthus retroflexus; assay: Post-emergence herbicidal efficacy at 1280 g/ha, AMARE; conditions: rated visually after about 3 weeks vs untreated controls, 100% = plants have died, 0% = like control plants
Protocol: as §1

[3] = tested on: DIGSA: Digitaria sanguinalis; assay: Post-emergence herbicidal efficacy at 1280 g/ha, DIGSA; conditions: rated visually after about 3 weeks vs untreated controls, 100% = plants have died, 0% = like control plants
Protocol: as §1

KCHSC: Kochia scoparia [4] = assay: Post-emergence herbicidal efficacy at 1280 g/ha, KCHSC; conditions: visual rating about 3 weeks after treatment vs untreated controls
Protocol: as §1

POAAN: Poa annua [5] = assay: Post-emergence herbicidal efficacy at 1280 g/ha, POAAN; conditions: visual rating about 3 weeks after treatment vs untreated controls
Protocol: as §1

STEME: Stellaria media [6] = assay: Post-emergence herbicidal efficacy at 1280 g/ha, STEME; conditions: visual rating about 3 weeks after treatment vs untreated controls
Protocol: as §1

VERPE: Veronica persica [7] = assay: Post-emergence herbicidal efficacy at 1280 g/ha, VERPE; conditions: visual rating about 3 weeks after treatment vs untreated controls
Protocol: as §1

[8] = tested on: AMARE: Amaranthus retroflexus; assay: Pre-emergence herbicide efficacy at 1280 g/ha, AMARE; conditions: visual scoring after about 3 weeks vs untreated controls
Text: (§2) Seeds of mono- and dicotyledonous weed plants were placed in plastic pots in sandy loam soil (doubly sown with one species each of mono- or dicotyledonous weed plants per pot) and covered with soil. The compounds of the invention, formulated in the form of wettable powders (WP) or as emulsion concentrates (EC), were then applied to the surface of the covering soil as aqueous suspension or emulsion with addition of 0.5% additive at a water application rate of 600 litres per hectare (converted). After the treatment, the pots were placed in a greenhouse and kept under good growth conditions for the test plants. After about 3 weeks, the efficacy of the preparations was scored visually in comparison with untreated controls as percentages. For example, 100% activity=the plants have died, 0% activity=like control plants. Tables C1 to C12 below show the effects of selected compounds of the general formula (I) according to Table 1 on various harmful plants and at an application rate corresponding to 1280 g/ha, which were obtained by the trial procedure specified above.

[9] = tested on: DIGSA: Digitaria sanguinalis; assay: Pre-emergence herbicide efficacy at 1280 g/ha, DIGSA; conditions: visual scoring after about 3 weeks vs untreated controls
Text: as §2

[10] = tested on: ECHCG: Echinochloa crus-galli; assay: Pre-emergence herbicide efficacy at 1280 g/ha, ECHCG; conditions: visual scoring after about 3 weeks vs untreated controls
Text: as §2

KCHSC: Kochia scoparia [11] = assay: Pre-emergence herbicide efficacy at 1280 g/ha, KCHSC; conditions: visual scoring after about 3 weeks vs untreated controls
Text: as §2

POAAN: Poa annua [12] = assay: Pre-emergence herbicide efficacy at 1280 g/ha, POAAN; conditions: visual scoring after about 3 weeks vs untreated controls
Text: as §2

SETVI: Setaria viridis [13] = assay: Pre-emergence herbicide efficacy at 1280 g/ha, SETVI; conditions: visual scoring vs untreated controls
Text: as §2

[14] = tested on: ECHCG: Echinochloa crus-galli; assay: Post-emergence herbicidal efficacy at 1280 g/ha, ECHCG; conditions: rated visually after about 3 weeks vs untreated controls, 100% = plants have died, 0% = like control plants
Protocol: as §1

SETVI: Setaria viridis [15] = assay: Post-emergence herbicidal efficacy at 1280 g/ha, SETVI; conditions: visual rating about 3 weeks after treatment vs untreated controls
Protocol: as §1

[16] = tested on: ABUTH: Abutilon theophrasti; assay: Pre-emergence herbicide efficacy at 1280 g/ha, ABUTH; conditions: visual scoring after about 3 weeks vs untreated controls
Text: as §2

VERPE: Veronica persica [17] = assay: Pre-emergence herbicide efficacy at 1280 g/ha, VERPE; conditions: visual scoring vs untreated controls
Text: as §2

STEME: Stellaria media [18] = assay: Pre-emergence herbicide efficacy at 1280 g/ha, STEME; conditions: visual scoring vs untreated controls
Text: as §2

| SMILES | Post-emergence efficacy at 1280 g/ha against ABUTH in % [1] [%] | Post-emergence efficacy at 1280 g/ha against AMARE in % [2] [%] | Post-emergence efficacy at 1280 g/ha against DIGSA in % [3] [%] | Post-emergence efficacy against KCHSC (KCHSC: Kochia scoparia [4]) [%] | Post-emergence efficacy against POAAN (POAAN: Poa annua [5]) [%] | Post-emergence efficacy against STEME (STEME: Stellaria media [6]) [%] | Post-emergence efficacy against VERPE (VERPE: Veronica persica [7]) [%] | Pre-emergence efficacy against AMARE [8] [%] | Pre-emergence efficacy against DIGSA [9] [%] | Pre-emergence efficacy against ECHCG [10] [%] | Pre-emergence efficacy against KCHSC (KCHSC: Kochia scoparia [11]) [%] | Pre-emergence efficacy against POAAN (POAAN: Poa annua [12]) [%] | Pre-emergence efficacy against SETVI in % (SETVI: Setaria viridis [13]) [%] | Post-emergence efficacy at 1280 g/ha against ECHCG in % [14] [%] | Post-emergence efficacy against SETVI (SETVI: Setaria viridis [15]) [%] | Pre-emergence efficacy against ABUTH [16] [%] | Pre-emergence efficacy against VERPE in % (VERPE: Veronica persica [17]) [%] | Pre-emergence efficacy against STEME in % (STEME: Stellaria media [18]) [%] |
| --- | --- | --- | --- | --- | --- | --- | --- | --- | --- | --- | --- | --- | --- | --- | --- | --- | --- | --- |
| FC(F)(F)CCCc1ccccc1Cc1ncc(Cl)cn1 [Example 1-1] | 90 | 100 | 90 | 90 | 90 | 100 | 100 | 100 | 100 | 90 | 90 | 90 | 90 |  |  |  |  |  |
| Fc1ccc(-c2ccccc2Cc2ncc(Cl)cn2)cc1F [Example 1-26] | 100 | 100 | 90 | 100 | 90 | 100 | 100 | 100 | 100 | 90 | 100 | 100 | 90 | 90 | 90 | 90 |  |  |
| Fc1cnc(Cc2ccccc2-c2ccc(F)c(F)c2)nc1 [Example 1-27] | 90 | 100 | 90 | 90 | 90 | 90 | 90 | 100 | 100 | 90 | 90 | 90 | 100 |  | 90 | 100 | 100 |  |
| Cc1cccc(Cc2ncc(Cl)cn2)c1Oc1ccc(F)cc1 [Example 1-31] | 100 | 90 |  |  | 90 | 90 | 90 | 90 | 100 | 100 |  | 100 | 100 | 100 | 90 |  |  |  |
| Fc1ccc(Oc2c(Br)cccc2Cc2ncc(Cl)cn2)cc1 [Example 1-37] | 100 | 100 | 90 | 100 | 100 | 90 | 100 | 100 | 100 | 90 |  | 90 | 100 | 100 |  |  |  | 90 |
| N#Cc1cccc(Cc2ncc(Cl)cn2)c1Oc1ccc(F)cc1 [Example 1-38] | 100 | 100 | 90 | 100 | 90 | 100 | 100 | 100 | 100 | 100 |  | 100 | 100 | 100 | 90 |  | 100 | 100 |
| Fc1ccc(Oc2ccccc2Cc2ncc(Br)cn2)cc1 [Example 1-87] | 100 | 100 |  | 100 | 100 | 90 | 100 | 100 | 100 | 90 |  |  | 100 | 90 | 90 |  |  |  |
| Fc1cnc(Cc2ccccc2Oc2ncc(Cl)cc2F)nc1 [Example 1-90] | 90 | 100 | 90 | 100 | 100 | 90 | 100 | 100 | 100 | 100 | 100 | 100 | 90 |  |  | 100 | 100 | 90 |
| Fc1ccc(Sc2ccccc2Cc2ncc(Cl)cn2)cc1 [Example 1-99] | 90 | 100 | 90 | 100 | 100 | 100 | 90 | 100 | 100 | 100 |  | 100 | 100 | 100 | 90 | 90 |  | 100 |
| Fc1cc(Cl)cnc1Oc1ccccc1Cc1ccc(Cl)cn1 [Example 1-101] | 90 | 100 |  |  | 100 | 90 | 100 | 100 | 100 | 100 |  | 100 | 100 | 90 |  | 90 |  | 100 |
